Results taken from US6548530B1, “CBI analogs of CC-1065 and the duocarmycins” (The Scripps Research Institute, priority 1995, dated 2003).
Like-named read-outs stand apart in the source and are kept apart here.

Legend:
[1] = (+)-enantiomer; cited from earlier work
L1210 [2] = test: in vitro cytotoxic activity (L1210)
[3] = in vivo; cited from earlier work
[4] = test system: double-stranded DNA (clone w794); test: DNA alkylation of 5′ end-labeled duplex DNA (thermally-induced strand cleavage, PAGE, autoradiography); assay type: biochemical; conditions: for DNA alkylation efficiency, fold less efficient than (+)-CBI-CDPI1 (26): natural enantiomers
Protocol: FIG. 21 illustrates the thermally-induced strand cleavage of double-stranded DNA (144 bp, nucleotide no. 138-5238, clone w794) after 24 h incubation of agent-DNA at 4° C. followed by removal of unbound agent and 30 inutes incubation at 100° C.; denaturing 8% polyacrylamide gel and autoradiography. Lanes 1-4, Sanger G,C,A, and T sequencing reactions; lane 5, control labeled w794 DNA; lanes 6-8, (+)-CPI-indole2 ((+)-4, 1×10^−4-1×10^−6 M); lanes 9-11, (+)-CBI-indole2 ((+)-27, 1×10^−5-1×10^−7 M).
FIG. 22 illustrates the thermally-induced strand clealvage of 5′ end-labeled duplex DNA (clone w794, 144 bp, nucleotide no 138-5238). Incubation of agent-DNA at 25° C. (24 h) followed by removal of unbound agent and 30 min thermolysis at 100° C., denaturing 8% PAGE, and autoradiography. Lanes 1-2, ent-(−)-duocarmycin SA ((−)-2, 1×10^−6 and 1×10^−7 M); lanes 3-5, (+)-duocarmycin SA, ((+)-2, 1×10^−6-1×10^−8 M); lanes 6-9, G, C, A and T sequencing reactions; lane 10, control labeled w794 DNA; lanes 11-13, (+)-CBI-TMI ((+)-29, 1×10^−6-1×10^−8 M); lanes 14-15, ent-(−)-CBI-TMI ((−)-29, 1×10^−5 and 1×10^−6 M).
FIGS. 23A-23B represent the following: Top: Plot of % integrated optical density (% IOD) versus time established through autoradiography of 5′ ^32P end-labeled DNA and used to monitor the relative rate of w794 alkylation at the 5′-AATTA high affinity site for (+)-CBI-indole2 (27) and (+)-CPI-indole2 (4); 37° C., 0-5 d, 1×10^−5 M agent. Bottom: Plot of % integrated optical density (% IOD) versus time established through autoradiography of 5′ ^32P end-labeled DNA and used to monitor the relative rate of w794 alkylation at the 5′-AATTA high affinity site for (+)-duocarmycin SA (2) and (+)-CBI-TMI (29); 4° C., 0-24 h, 1×10^−6 M agent.
DNA Alkylation Studies. General procedures, the preparation of singly ^32P 5′ end-labeled double-stranded DNA, the agent binding studies, gel electrophoresis, and autoradiography were conducted according to procedures described in full detail elsewhere. (Boger et. al Tetrahedron 1991, 47, 2661). Eppendorf tubes containing the 5′ end-labeled DNA (9 μL, w794 and w836) in TE buffer (10 mM Tris, 1 mM EDTA, pH 7.5) were treated with the agent DIMETHYLSULFOXIDE (1 μL at the specified concentration). The solution was mixed by vortexing and brief centrifugation and subsequently incubated at 25° C. for 3 days. The covalently modified DNA was separated from unbound agent by Ethanol precipitation and resuspended in TE buffer (10 μL). The solution of DNA in an Eppendorf tube sealed with parafilm was heated at 100° C. for 30 min to induce cleavage at the alkylation sites, allowed to cool to 25° C. and centrifuged. Formamide dye (0.33% xylene cyanol FF, 0.03% bromophenol blue, 8.7% Na2EDTA 250 mM) was added (5 μL) to the supernatant. Prior to electrophoresis, the sample was denatured by warming at 100° C. for 5 min, placed in an ice bath, and centrifuged, before the supernatant (3 μL) was loaded directly onto the gel. Sanger dideoxynucleotide sequencing reactions were run as standards adjacent to the reaction samples. Polyacrylamide gel electrophoresis (PAGE) was run on an 8% sequencing gel under denaturing conditions (8 M urea) in TBE buffer (100 mM Tris, 100 mM boric acid, 0.2 mM Na2EDTA) followed by autoradiography.
DNA Alkylation Studies of 2-5: Selectivity and Efficiency. Eppendorf tubes containing singly ^32P 5′-end-labeled double-stranded DNA^10 (9 μL) in TE buffer (10 mM Tris, 1 mM EDTA, pH 7.5) were treated with the agents 190-196 in DIMETHYLSULFOXIDE (1 μL, at the specified concentrations). The solutions were mixed by vortexing and brief centrifugation and subsequently incubated at 4° C. for 24 h. The covalently modified DNA was separated from unbound agent by Ethanol precipitation of the DNA. The Ethanol precipitations were carried out by adding t-RNA as a carrier (1 μL, 10 1μg/μL), a buffer solution containing salt (0.1 volume, 3 M NaOAc in TE) and −20° C. Ethanol (2.5 volumes). […]

solubility properties = assay type: physicochemical; conditions: polar protic or aprotic solvents, water, nonpolar solvents
L1210 [5] = conditions: cited from earlier work
[6] = Mus musculus, L1210, read-out: cytotoxic potency

In the case of `O=C(Nc1ccc2[nH]c(C(=O)N3CC4CC45C3=CC(=O)c3ccccc35)cc2c1)c1cc2ccccc2[nH]1` (centres unmarked) [Compound 27], the “in vivo antitumor activity” value [1] is given as “potent and efficacious”, the “cytotoxic potency compared with (+)-CC-1065” value (L1210 [2]; (+)-enantiomer) is given as “comparable” and the “cytotoxic potency, fold greater than (+)-CPI-indole2 (4, U71,184)” value (L1210 [2]; (+)-enantiomer) is given as 4 ×. The delayed toxicity [3] was “lacked the delayed fatal toxicity”, the “relative rate of DNA alkylation k(27)/k(4)” value ([4]; single high affinity site (5′-AATTA) of w794 DNA, 37° C., 0-5 d, 1×10^−5 M agent) was 14 and the “DNA alkylation efficiency, fold more efficient than (+)-CPI-indole2 (4)” value ([4]; w794, 4° C. or 37° C., (+)-enantiomers) was 10 ×.

With `Cl.NNC(=O)N1CC(CCl)c2c1cc(O)c1ccccc21` (centres unmarked) [Compound 73, 1-(Chloromethyl)-3-(hydrazino)carbonyl-5hydroxy-1,2-dihydro-3H-benz[e]indole hydrochloride] the “in vitro cytotoxic activity compared with N-BOC-CBI (9)” value (L1210 [2]) was “more potent”, the “in vitro cytotoxic activity, fold more potent than tert-butylcarbazate precursor 72” value (L1210 [2]; free semicarbazide versus 72) was “ca. 100 ×” and the “in vitro cytotoxic activity, fold less potent than (+)-CC-1065” value (L1210 [2]; seco precursor with free amine) was 100 ×.

For `Cc1c[nH]c2c1[C@@]13C[C@@H]1CN(C(=O)c1cc4c5c(ccc4[nH]1)N(C(=O)c1cc4c6c(ccc4[nH]1)N(C(N)=O)CC6)CC5)C3=CC2=O` [(+)-CPI-CDPI2], the delayed toxicity [3] is listed as “exhibited the delayed toxicity”.

With `NC(=O)N1CCc2c1ccc1oc(C(=O)N3C[C@H]4CC45C3=CC(=O)c3ccccc35)nc21` (some centres unmarked) [Compound 62, CBI-CDPBO1] the IC50 (L1210 [2]; [6]) was 500 to 1000 pM and the “DNA alkylation efficiency, fold less efficient than (+)-CBI-CDPI1 (26)” value [4] was “approximately 100 ×”.

Molecule (+)-CPI-PDE-I1 [reference compound] has an IC50 (L1210 [2]; L1210) of 20 pM.

For `COc1c(O)c2c(c3cc(C(=O)N4CCc5c4c(O)c(OC)c4[nH]c(C(=O)N6C[C@H]7C[C@@]78C6=CC(=O)c6[nH]cc(C)c68)cc54)[nH]c13)CCN2C(N)=O` [(+)-CC-1065, CC-1065], the IC50 (L1210 [2]; L1210) is listed as 20 pM, the delayed toxicity [3] is listed as “exhibited the delayed toxicity” and the solubility (solubility properties) is listed as “essentially insoluble in all solvents except DMSO or DMF”.

In the case of `NC(=O)N1CCc2c1ccc1[nH]c(C(=O)N3C[C@H]4C[C@@]45C3=CC(=O)c3ccccc35)cc21` [Compound 26, CBI-CDPI1], the “DNA alkylation selectivity (sequence)” value ([4]; (+)-enantiomer) is reported as 5′-A/TA/TA/TA and the “DNA alkylation selectivity (sequence)” value ([4]; ent-(−)-enantiomer) is reported as 5′-A/TAA/TA/T.

For `COc1cc2cc(C(=O)N3CC4CC45C3=CC(=O)c3ccccc35)[nH]c2c(OC)c1OC` (centres unmarked) [Compound 29, CBI-TMI], the “relative rate of DNA alkylation k(29)/k(2)” value ([4]; 5′-AATTA high affinity site of w794 DNA, 4° C., 0-24 h, 1×10^−6 M agent) was 0.9.

With `NC(=O)N1CCc2c1ccc1[nH]c(C(=O)N3C[C@H]4CC45C3=CC(=O)c3ccccc35)nc21` (some centres unmarked) [Compound 64, N^2-[(3′-carbamoyl-1′,2′-dihydro-3′H-pyrrolo[3′,2′-e]benzimidazol-7′-yl)carbonyl]-1,2,9,9a-tetrahydro-cyclopropa-[c]-enz[e]-indol-4-one] the IC50 (L1210 [2]; [6]) was 500 to 1000 pM and the “DNA alkylation efficiency, fold less efficient than (+)-CBI-CDPI1 (26)” value [4] was “approximately 100 ×”.

For `COc1c(O)c2c(c3cc(C(=O)N4CCc5c4c(O)c(OC)c4[nH]c(C(=O)N6CC7CC78C6=CC(=O)c6[nH]cc(C)c68)cc54)[nH]c13)CCN2C(N)=O` (stereo not drawn) [ent-(−)-CC-1065], the delayed toxicity [3] is given as “has not been observed” and the “cytotoxicity compared with natural (+)-CC-1065” value (L1210 [5]) is given as “equally cytotoxic”.
